# Measurements from patent US6893846B2, “Primers for use in detecting beta-lactamases” (priority 1998, dated 2005).
# How the values were obtained:
# K. pneumoniae 225 [1] = experiment: NCCLS microdilution susceptibility test; assay type: cell-based, Klebsiella pneumoniae; settings: Klebsiella pneumoniae, 225
# K. pneumoniae 225 [2] = experiment: NCCLS disk diffusion assay; assay type: cell-based, Klebsiella pneumoniae; settings: disk diffusion, Kleb 225
# E. aerogenes [3] = experiment: Double-disk potentiation test; assay type: cell-based, Enterobacter aerogenes; settings: all the E. aerogenes strains selected; potentiation by clavulanic acid
# Description: This test described by Jarlier et al., Rev. Infect. Dis.
# E. aerogenes [4] = experiment: Vitek automated susceptibility system; assay type: cell-based, Enterobacter aerogenes; settings: the 31 selected E. aerogenes strains
# Description: Among all E. aerogenes recovered from clinical specimens during an eighteen month period (September 1993 to March 1995), thirty-one E. aerogenes strains showing a resistance phenotype different from that observed with derepressed mutants normally encountered at the Hunter Holmes McGuire Medical Center, Richmond, Va. were selected for this study. The strains selected were intermediate to ceftriaxone but resistant to ceftazidime when tested with the Vitek automated susceptibility system (bioMerieux Vitek, St. Louis, Mo.). Derepressed mutants previously isolated from this center were usually resistant to both ceftriaxone and ceftazidime.
# [5] = tested on: E. coli HB101 transformant (17 kb plasmid); settings: disk diffusion, Tr (17 kb) = transformant E. coli HB101
# [6] = tested on: E. coli C600 transconjugant; settings: disk diffusion, Tc = transconjugate E. coli C600
# K. pneumoniae 225 [7] = settings: test drug disk around amoxicillin-clavulanate disk
# K. pneumoniae 225 [8] = experiment: Three-dimensional test (enzymatic inactivation of antibiotics); settings: beta-lactamase-mediated hydrolysis by K. pneumoniae 225, lawn E. coli ATCC 25922
# SHV and TEM genes [9] = experiment: PCR amplification with TEM and SHV primers; parameters: species or system Klebsiella pneumoniae
# Method: (§1) The organisms were inoculated into 5 ml of Luria Bertani (LB) broth (Difco, Detroit, Mich.) and incubated for 20 hours at 37° C. with shaking. Cells from 1.5 ml of overnight culture were harvested by centrifugation at 17,310×g in an Hermle centrifuge for 5 minutes. After the supernatant was decanted, the pellet was resuspended in 500 μl of distilled water. The cells were lysed by heating at 95° C. for 10 minutes and cellular debris was removed by centrifugation for 5 minutes at 17,310×g. The supernatant was used as source of template for amplification.
# (§2) The following oligonucleotide primers specific for the SHV and TEM genes were designed by using MacVector version 4.5 (Kodak/IBI): SHV genes: A [5′-([…])-3′] (SEQ ID NO:10) and B [5′-([…])-3′] (SEQ ID NO:11) corresponding to nucleotide numbers 103 to 121 and 988 to 970, respectively, of Mercier et al., Antibicrob. Agents Chemother. 34:1577-1583 (1990)); TEM genes: C [5′-([…])-3′ (SEQ ID NO:5) and D [5′-([…])-3′ (SEQ ID NO:1) corresponding to nucleotide numbers 90 to 105 and 1062 to 1042, respectively, of Sutcliff et al., Proc. Nat. Aca. Sci. USA, 75:3737-3741 (1978). Primers A and B amplified a 885 base pair fragment while primers C and D amplified a 971 base pair fragment. The specificity of the SHV and TEM primers for amplification of SHV and TEM genes respectively was tested by using the following beta-lactamase controls; TEM-I (pACYC177), MIR-1 (from K. pneumoniae96D) and SHV-7 (pCLL3410).
# PCR amplifications were carried out on a DNA Thermal Cycler 480 instrument (Perkin-Elmer, Cetus, Norwalk, Conn.) using the Gene Amp DNA amplification kit containing AmpliTaq polymerase (Perkin Elmer, Roche Molecular Systems, Inc., Branchburg, N.J.). The composition of the reaction mixture was as follows: 10 mM Tris-HCl (pH 8.3), 50 mM KCl, 0.1% TRITON X-100, 1.5 mM MgCl2, 0.2 mM (each) of the four deoxynucleoside triphosphates, and 1.2 U of AmpliTaq in a total volume of 49 μl. A total of 1 μl of sample lysate was added to the reaction mixture, and was centrifuged briefly before […] of mineral oil was layered on the surface. The PCR program consisted of an initial denaturation step at 96° C. for 15 seconds; followed by 24 cycles of DNA denaturation at 96° C. for 15 seconds, primer annealing at 50° C. for 15 seconds and primer extension at 72° C. for 2 minutes. After the last cycle the products were stored at 4° C. The PCR products (1/10 volume) were analyzed by electrophoresis using 1.4% agarose gels in TAE buffer (0.04 M Tris-acetate, 0.002 M EDTA [pH 8.5]). The gels were stained with ethidium bromide and the PCR products were visualized with ultra-violet light. […] The larger product which corresponded to the expected size of the SHV specific product was gel purified using a 1.4% agarose in TAE gel and the purified PCR product was used for sequence analysis.
# SHV and TEM genes [10] = experiment: PCR amplification with TEM and SHV primers; parameters: species or system Escherichia coli
# Method: as §1, §2
# PCR amplifications were carried out on a DNA Thermal Cycler 480 instrument (Perkin-Elmer, Cetus, Norwalk, Conn.) using the Gene Amp DNA amplification kit containing AmpliTaq polymerase (Perkin Elmer, Roche Molecular Systems, Inc., Branchburg, N.J.). The composition of the reaction mixture was as follows: 10 mM Tris-HCl (pH 8.3), 50 mM KCl, 0.1% TRITON X-100, 1.5 mM MgCl2, 0.2 mM (each) of the four deoxynucleoside triphosphates, and 1.2 U of AmpliTaq in a total volume of 49 μl. A total of 1 μl of sample lysate was added to the reaction mixture, and was centrifuged briefly before […] of mineral oil was layered on the surface. The PCR program consisted of an initial denaturation step at 96° C. for 15 seconds; followed by 24 cycles of DNA denaturation at 96° C. for 15 seconds, primer annealing at 50° C. for 15 seconds and primer extension at 72° C. for 2 minutes. After the last cycle the products were stored at 4° C. The PCR products (1/10 volume) were analyzed by electrophoresis using 1.4% agarose gels in TAE buffer (0.04 M Tris-acetate, 0.002 M EDTA [pH 8.5]). The gels were stained with ethidium bromide and the PCR products were visualized with ultra-violet light. […]
# SHV and TEM genes [11] = experiment: PCR amplification with TEM and SHV primers; parameters: species or system Proteus mirabilis; settings: P. mirabilis Pit 85 (pI 5.6, TEM-26-type)
# Method: as §1
# The following oligonucleotide primers specific for the SHV and TEM genes were designed by using MacVector version 4.5 (Kodak/IBI): SHV genes: A [5′-([…])-3′] (SEQ ID NO:10) and B [5′-([…])-3′] (SEQ ID NO:11) corresponding to nucleotide numbers 103 to 121 and 988 to 970, respectively, of Mercier et al., Antibicrob. Agents Chemother. […]
# PCR amplifications were carried out on a DNA Thermal Cycler 480 instrument (Perkin-Elmer, Cetus, Norwalk, Conn.) using the Gene Amp DNA amplification kit containing AmpliTaq polymerase (Perkin Elmer, Roche Molecular Systems, Inc., Branchburg, N.J.). […] The PCR products (1/10 volume) were analyzed by electrophoresis using 1.4% agarose gels in TAE buffer (0.04 M Tris-acetate, 0.002 M EDTA [pH 8.5]). […]
Molecule,MIC (K. pneumoniae 225 [1]) [µg/mL],Zone Size (K. pneumoniae 225 [2]) [mm],double disk test (E. aerogenes [3]),Vitek susceptibility result (E. aerogenes [4]),Zone Size [5] [mm],Zone Size [6] [mm],clavulanate double-disk potentiation test (K. pneumoniae 225 [7]),three dimensional test (K. pneumoniae 225 [8]),"Amplification with primers (SHV and TEM genes [9]; K. pneumoniae Pit 16 (pI 5.6, TEM-26-type))","Amplification with primers (SHV and TEM genes [9]; K. pneumoniae Pit 82 (pI 8.2, SHV-5))","Amplification with primers (SHV and TEM genes [9]; K. pneumoniae Pit 100 (pI 7.6, SHV-2))","Amplification with primers (SHV and TEM genes [10]; E. coli Pit 56 (pI 7.6, SHV-2))","Amplification with primers (SHV and TEM genes [10]; E. coli Pit 64 (pI 5.6, TEM-26-type))",Amplification with primers (SHV and TEM genes [11])
CO/N=C(\C(=O)N[C@@H]1C(=O)N2C(C(=O)O)=C(CSc3nc(=O)c(=O)[nH]n3C)CS[C@H]12)c1csc(N)n1 [ceftriaxone],16,13,positive,intermediate,32,12,positive,positive,–,–,–,–,–,–
"SHV primers: primer pair A (SEQ ID NO:10) and B (SEQ ID NO:11) specific for the SHV genes (DNA 1 CACTCAAGGATGTATTGTG; DNA 2 TTAGCGTTGCCAGTGCTCG; listed as DNA, chemistry not given here)",–,–,–,–,–,–,–,–,No,Yes,Yes,Yes,No,No
